# Laboratory results published in patent US8333970B2, “Methods of monitoring the efficacy of anti-CD40 antibodies in treating a subject having an inflammatory or autoimmune disease” (Novartis AG, priority 2005, dated 2012).
# “Also recorded” adds a separate entry of the source.
# Tests used:
# normal human B cells = experiment: Western blot of apoptosis and survival proteins in sCD40L-stimulated B cells; format: cell-based
# Procedure: (§1) In these experiments, 0.6×10^6 normal human B cells from healthy donors (percent purity between 85-95%) were stimulated with 1 μg/ml sCD40L (Alexis Corporation, Bingham, Nottinghamshire, UK). […] Cells were collected at 0, 20 minutes, 2 hours, 6 hours, 18 hours, and 26 hours. Cleaved Caspase-9, cleaved Caspase-3, cleaved PARP, and β-actin controls were detected in cell lysates by Western blot.
# as §1, with “Mcl-1, XIAP, CD40,” for “Cleaved Caspase-9, cleaved Caspase-3, cleaved PARP,”
# as §1, with “percent” for “(percent”, “24” for “0, 20 minutes, 2 hours, 6 hours, 18 hours, and 26”, “Cleaved” for “Cleaved Caspase-9, cleaved Caspase-3, cleaved”
# as §1, with “22” for “0, 20 minutes, 2 hours, 6 hours, 18 hours, and 26”, “Mcl-1, XIAP,” for “Cleaved Caspase-9, cleaved Caspase-3,”
# [1] = tested on: cancer cells from NHL and CLL patients; experiment: In vitro CD40 ligand-mediated proliferation of patient cancer cells; format: cell-based, human
# Text: 4, 2003, Nov. 26, 2003, and Apr. 27, 2004, and assigned U.S. Patent Application Nos. 60/517,337 , 60/525,579, and 60/565,710, respectively, and International Patent Application No. PCT/US2004/037152, also entitled “Antagonist Anti-CD40 Monoclonal Antibodies and Methods for Their Use,” filed Nov. 4, 2004; the contents of each of which are herein incorporated by reference in their entirety.
# [2] = 1 μg/ml sCD40L, 10 μg/ml antibody, 0 to 26 hours
# [3] = 1 μg/ml sCD40L, 0.5, 2 and 10 μg/ml antibody, 22 hours
substance,measurement,setting,value
"CHIR-12.12: fully human anti-CD40 monoclonal antibody of the IgG1 isotype, hybridoma 153.8E2.D10.D6.12.12, ATCC PTA-5543, SEQ ID NO:2 and 4","cleaved Caspase-9, cleaved Caspase-3, cleaved PARP",normal human B cells; [2],"increased cleavage of Caspase-9, Caspase-3, and PARP; also recorded: resulted in an increase of these cleavage products"
same,expression of Mcl-1 and XIAP over time,normal human B cells; [2],reduction of XIAP and Mcl-1; also recorded: resulted in a decrease in expression of these proteins
same,PARP cleavage,"normal human B cells; 1 μg/ml sCD40L, 0.01-1.0 μg/ml antibody, 24 hours",increase of PARP cleavage in sCD40L stimulated cells in a dose-dependent manner
same,Mcl-1 and XIAP expression,normal human B cells; [3],reduced Mcl-1 and XIAP expression
same,cleaved PARP expression,normal human B cells; [3],increased cleaved PARP expression
same,CD40 ligand-mediated proliferation of cancer cells,[1],inhibiting in vitro CD40 ligand-mediated proliferation of cancer cells from NHL and CLL patients
